{"source": "paper PMC11645656", "about": "“MRGPRX4 mediates phospho-drug associated pruritus in a humanized mouse model” (Science translational medicine, 2024)", "key": {"[1]": {"biological_target": "MRGPRX4 S83L (L83) (Homo sapiens, UniProt Q96LA9)", "sequence (Q96LA9 whole entry, stated change not applied, the tested form may be a part)": "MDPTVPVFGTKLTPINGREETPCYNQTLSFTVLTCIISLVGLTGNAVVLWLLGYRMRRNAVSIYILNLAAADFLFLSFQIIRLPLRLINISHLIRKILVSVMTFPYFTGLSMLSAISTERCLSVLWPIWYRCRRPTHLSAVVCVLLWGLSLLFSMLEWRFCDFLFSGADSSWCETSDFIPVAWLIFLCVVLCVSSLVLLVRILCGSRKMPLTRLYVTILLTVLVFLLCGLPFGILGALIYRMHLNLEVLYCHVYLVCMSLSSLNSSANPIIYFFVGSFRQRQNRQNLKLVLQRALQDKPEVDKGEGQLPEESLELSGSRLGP", "experiment": "PRESTO-Tango β-arrestin recruitment assay, HTLA cells stably expressing S83L MRGPRX4", "format": "cell-based", "settings": "single replicate", "experimental": "HTLA cells, a cell line derived from HEK293 and engineered to stably express a tTA-dependent luciferase reporter and a β-arrestin2-TEV fusion gene, were generously provided by Richard Axel's laboratory. HTLA cells were cultured in growth medium containing 2 μg/ml puromycin and 100 μg/ml hygromycin B in 5% CO2 at 37 °C. Stably MRGPRX4-expressing HTLA cells were generated by transfecting pcDNA3.1(+)-Zeo containing MRGPRX4-Tango construct (either with WT or S83L mutant sequence) into HTLA cells with Lipofectamine 3000 and selecting the successful transfected clones with Zeocin.\nHTLA cells stably expressing either WT or S83L MRGPRX4 were seeded in PDL-coated 96-well white clear bottom cell culture plates with DMEM containing 10% FBS, at a density of 35,000 cells per well and were allowed to attach to the bottom of the wells overnight. The next day, growth medium was replaced with 100 μl of serum-free medium containing the tested drugs at various concentrations, and the cells were then incubated at 37°C for 24 h. On the following day, media with drug solutions was removed and 50 μl per well of Bright-Glo™ Reagent from Bright-Glo™ Luciferase Assay System (Promega) was loaded. The plate was incubated at room temperature in the dark for 5 min, and the relative luminescence units were measured using the Flexstation-3 instrument with SoftMax®Pro 7.1 software (Molecular Devices). Dose response curves and EC50s were analyzed as described above.\nMRGPRX4 by β-arrestin (Tango) recruitment assay. Data are from three independent experiments,\nperformed in triplicate, and depicted as mean ± SEM."}, "[2]": {"biological_target": "T1, MRGPRX4 R82A (Homo sapiens, UniProt Q96LA9, L83S/R82A)", "T1 construct": "expressed in transfected cells; host or cells: HEK293T, transient", "T1 sequence (Q96LA9 whole entry R82A/L83S)": "as the sequence (Q96LA9 whole entry, stated change not applied, the tested form may be a part) above, with R82A, L83S counted along it", "experiment": "Calcium mobilization assay (FLIPR), MRGPRX4 R82A mutant", "format": "cell-based", "from_the_text": "(§1) Fig. 3. […] (A) Cryo-EM density map of MRGPRX4-Gq in complex with fospropofol. (B) The density map of fospropofol and R82 of MRGPRX4. (C and D) Key molecular interactions between fospropofol and the hydrophilic (C) and hydrophobic (D) part of the agonist binding pocket of MRGPRX4. Amino acid residues interacting with fospropofol are shown as sticks. Hydrogen bond is shown as cyan dashed lines. […] Data are from at least three independent experiments, each performed in triplicate, and reported as the mean ± SEM. (E) and (F) were collected from the same sets of experiments.\n(§2) To generate murine Mrgprs expressing cells, HEK293T cells (ATCC) were seeded on poly-D-lysine coated 96 well plate at 25,000 cells per well one day prior to transfection. HEK293T cells were transiently co-transfected with the mammalian expression plasmids carrying cDNA encoding the murine Mrgpr genes and plasmid inserted with cDNA encoding murine α-subunit of the heterotrimeric G15 protein (Gα15) in triplicates using Lipofectamine LTX reagents (Thermo Scientific). To generate WT, S83L, and alanine mutant MRGPRX4-expressing cells, HEK293T cells were seeded on poly-D-lysine coated 384 well plate at 12,000 cells per well one day prior to transfection. […]"}, "[3]": {"biological_target": "T2, MRGPRX4 W158A (Homo sapiens, UniProt Q96LA9, L83S/W158A)", "T2 construct": "expressed in transfected cells; host or cells: HEK293T, transient", "T2 sequence (Q96LA9 whole entry L83S/W158A)": "as the sequence (Q96LA9 whole entry, stated change not applied, the tested form may be a part) above, with L83S, W158A counted along it", "experiment": "Calcium mobilization assay (FLIPR), MRGPRX4 W158A mutant", "format": "cell-based", "settings": "for calcium mobilization response (Fig. 3E and 3F dose-response): W158A", "from_the_text": "as §1\nTo generate murine Mrgprs expressing cells, HEK293T cells (ATCC) were seeded on poly-D-lysine coated 96 well plate at 25,000 cells per well one day prior to transfection. HEK293T cells were transiently co-transfected with the mammalian expression plasmids carrying cDNA encoding the murine Mrgpr genes and plasmid inserted with cDNA encoding murine α-subunit of the heterotrimeric G15 protein (Gα15) in triplicates using Lipofectamine LTX reagents (Thermo Scientific). To generate WT, S83L, and alanine mutant MRGPRX4-expressing cells, HEK293T cells were seeded on poly-D-lysine coated 384 well plate at 12,000 cells per well one day prior to transfection. Mammalian expression plasmids pLX304 (vector from Addgene) carrying different MRGPRX4 coding sequences were transiently transfected into HEK293T cells in triplicates with Lipofectamine LTX reagents (Thermo Scientific). Intracellular calcium mobilization assays were performed after one day of transfection. Murine Mrgprs tested include Mrgpra1, Mrgpra2a, Mrgpra2b, Mrgpra3, Mrgpra4, Mrgpra6, Mrgpra9, Mrgpra10, Mrgpra11, Mrgpra12, Mrgpra14, Mrgprb5, Mrgprb6, Mrgprb10, Mrgprb11, and Mrgprc11. WT and mutant MRGPRX4 constructs tested include WT, S83L, R82A, R86A, R95A, W158A, Y250A, and Y254A.\nTo generate MRGPRX4 mutant constructs, site-directed mutagenesis was performed using Q5® Site-Directed Mutagenesis Kit (New England Biolabs). The primers were designed by the NEBaseChanger tool, with forward primers spanning designated mutated sequence corresponding to the desired amino acid substitutions. The plasmids with WT MRGPRX4 sequence served as the templates for polymerase chain reaction (PCR) amplification with Q5 high-fidelity polymerase and respective primer pairs according to the manufacturer’s conditions. Then, the linear PCR products underwent phosphorylation, ligation, and simultaneous degradation of template DNA by incubating them with a KLD enzyme mix consisting of T4 polynucleotide kinase, T4 DNA ligase, and DpnI at room temperature for 5 min. Subsequently, the mutated circular plasmids were transformed into NEB 5-alpha competent E. coli by heat-shock method, and the successfully transformed bacteria were selected on LB plates with selection antibiotics. The next day, the transformant colonies were picked, expanded in LB broth containing selection antibiotics overnight. Plasmids were isolated using QIAprep Spin Miniprep Kit (Qiagen) and subjected to sequencing to confirm the mutation."}, "[4]": {"biological_target": "T3, MRGPRX4 Y250A (Homo sapiens, UniProt Q96LA9, L83S/Y250A)", "T3 construct": "expressed in transfected cells; host or cells: HEK293T, transient", "T3 sequence (Q96LA9 whole entry L83S/Y250A)": "as the sequence (Q96LA9 whole entry, stated change not applied, the tested form may be a part) above, with L83S, Y250A counted along it", "experiment": "Calcium mobilization assay (FLIPR), MRGPRX4 Y250A mutant", "format": "cell-based", "from_the_text": "as §1, §2"}, "[5]": {"settings": "cited from earlier work"}, "[6]": {"system": "WT mice", "experiment": "Itch behavioral study in WT mice across concentrations (fig. S4)", "protocol": "Experimenters and subjects scoring the recorded videos were both blind to the mouse genotype and tested compounds. Behavioral tests comparing NP2-WT and NP2-X4+ scratching behavior were 6–12weeks old littermates including both genders. In brief, on the day preceding the experiment, animals were acclimated to the test chamber for at least 30 min and the experimenters performed mock injections 1–2 times in between. On the day of experiments, animals were habituated in test chambers for 10 min before receiving subcutaneous injection of 50ul compounds. Videos were recorded for 30 min after the injection. A bout of scratching was defined as a sustained scratching movement initiated by hindpaws toward the injection site (until the pause of the movement / withdrawal of the hindpaw). Scratching bouts were quantified within the 30 min record sessions."}, "[7]": {"settings": "1 mM subcutaneous nape injection"}, "[8]": {"settings": "10 mM subcutaneous nape injection"}}, "note": "Where “and” joins values, the source holds several entries; their conditions need not be identical. Identical values can stand only once. Like-named read-outs stand apart in the source and are kept apart here.", "data": [{"smiles": "O=C1NC(c2ccccc2)(c2ccccc2)C(=O)N1COP(=O)(O)O", "note": "[Fosphenytoin]", "values": [{"measurement": "fig. S7 response (raw signal), concentration-response", "setting": "[1]; 3.91e-6 M", "value": 13508.2}, {"measurement": "fig. S7 response (raw signal), concentration-response", "setting": "[1]; 7.81e-6 M", "value": 22144.4}, {"measurement": "Calcium mobilization response at alanine mutant R82A vs WT", "setting": "[2]", "value": "either greatly attenuated or abolished"}, {"measurement": "Calcium mobilization response at alanine mutant W158A vs WT", "setting": "[3]", "value": "disrupted calcium mobilization"}, {"measurement": "calcium mobilization response (Fig. 3E and 3F dose-response)", "setting": "[3]; 0.000333 M", "value": -15.9549}, {"measurement": "calcium mobilization response (Fig. 3E and 3F dose-response)", "setting": "[3]; 0.001 M", "value": -17.9356}, {"measurement": "calcium mobilization response (Fig. 3E and 3F dose-response)", "setting": "[3]; […]", "value": -11.6633}, {"measurement": "Calcium mobilization response at alanine mutant Y250A vs WT", "setting": "[4]", "value": "disrupted calcium mobilization"}, {"measurement": "Solubility relative to parent drug", "setting": "[5]; vs phenytoin", "value": 4500, "unit": "fold"}, {"measurement": "Scratching bouts (each well represents individual mouse)", "setting": "[6]; [7]", "value": "0 (2×) and 16 (2×) and 11 and 26"}, {"measurement": "Scratching bouts (each well represents individual mouse)", "setting": "[6]; [8]", "value": "3 and 4 and 1 and 0 and 26"}]}, {"smiles": "CC(C)c1cccc(C(C)C)c1OCOP(=O)(O)O", "note": "[Fospropofol]", "values": [{"measurement": "fig. S7 response (raw signal), concentration-response", "setting": "[1]; 1.95e-8 M", "value": 10514}, {"measurement": "Calcium mobilization response at alanine mutant R82A vs WT", "setting": "[2]", "value": "either greatly attenuated or abolished"}, {"measurement": "Calcium mobilization response at alanine mutant W158A vs WT", "setting": "[3]", "value": "disrupted calcium mobilization"}, {"measurement": "Calcium mobilization response at alanine mutant Y250A vs WT", "setting": "[4]", "value": "disrupted calcium mobilization"}, {"measurement": "Solubility relative to parent drug", "setting": "[5]; vs propofol", "value": 3000, "unit": "fold"}, {"measurement": "Scratching bouts (each well represents individual mouse)", "setting": "[6]; [7]", "value": "16 and 12 and 11 and 28"}, {"measurement": "Scratching bouts (each well represents individual mouse)", "setting": "[6]; [8]", "value": "5 and 20 and 15 and 16"}]}]}
